Reference: ChEMBL document CHEMBL1141575, “Preparation and in vitro biological evaluation of tetrapyrrole ethanolamide derivatives as potential anticancer agents” (Bioorg Med Chem Lett, 2008)

What was measured:
SiHa [1] = test: Survival of human SIHA cells at 100 uM under deem light after 96 hrs by MTT assay relative to control; format: functional; conditions: read-out: Survival
[2] = Survival of human H209 cells at 50 uM under deem light after 96 hrs by MTT assay relative to control; format: functional; conditions: NCI-H209, 96 h, read-out: Survival
[3] = Survival of human H209 cells at 0.1 uM under deem light after 96 hrs by MTT assay relative to control; format: functional; conditions: NCI-H209, 96 h, read-out: Survival
[4] = Photohemolysis in human RBC at 375 nM under exposure to light for 10 mins; format: ADME, cell-based, Erythrocyte; conditions: human red blood cells, read-out: Activity
[5] = Survival of human MDA-MB cells at 100 uM under deem light after 96 hrs by MTT assay relative to control; format: functional; conditions: read-out: Survival
HeLa [6] = test: Survival of human HeLa cells at 1 uM under deem light after 96 hrs by MTT assay relative to control; format: functional; conditions: read-out: Survival
Raji [7] = test: Cytotoxicity against human Raji cells under deem light after 96 hrs by MTT assay; format: functional, cell-based
[8] = Survival of human MDA-MB cells at 10 uM under deem light after 96 hrs by MTT assay relative to control; format: functional; conditions: read-out: Survival
SiHa [9] = test: Survival of human SIHA cells at 1 uM under deem light after 96 hrs by MTT assay relative to control; format: functional; conditions: read-out: Survival
HeLa [10] = test: Cytotoxicity against human HeLa cells under deem light after 96 hrs by MTT assay; format: functional, cell-based
NCI-H69 [11] = test: Cytotoxicity against human H69 cells under deem light after 96 hrs by MTT assay; format: functional, cell-based; conditions: NCI-H69, 96 h
[12] = Survival of human MDA-MB cells at 0.1 uM under deem light after 96 hrs by MTT assay relative to control; format: functional; conditions: read-out: Survival
[13] = Survival of human 2780.9S cells at 10 uM under deem light after 96 hrs by MTT assay relative to control; format: functional; conditions: read-out: Survival
K562 [14] = test: Survival of human K562 cells at 50 uM under deem light after 96 hrs by MTT assay relative to control; format: functional; conditions: K562, 96 h, read-out: Survival
[15] = Survival of human H209 cells at 100 uM under deem light after 96 hrs by MTT assay relative to control; format: functional; conditions: NCI-H209, 96 h, read-out: Survival
Raji [16] = test: Survival of human Raji cells at 1 uM under deem light after 96 hrs by MTT assay relative to control; format: functional; conditions: read-out: Survival
Raji [17] = test: Survival of human Raji cells at 50 uM under deem light after 96 hrs by MTT assay relative to control; format: functional; conditions: read-out: Survival
NCI-H69 [18] = test: Survival of human H69 cells at 50 uM under deem light after 96 hrs by MTT assay relative to control; format: functional; conditions: NCI-H69, 96 h, read-out: Survival
HeLa [19] = test: Survival of human HeLa cells at 50 uM under deem light after 96 hrs by MTT assay relative to control; format: functional; conditions: read-out: Survival
NCI-H69 [20] = test: Survival of human H69 cells at 1 uM under deem light after 96 hrs by MTT assay relative to control; format: functional; conditions: NCI-H69, 96 h, read-out: Survival
[21] = Survival of human 2780.9S cells at 1 uM under deem light after 96 hrs by MTT assay relative to control; format: functional; conditions: read-out: Survival
Raji [22] = test: Survival of human Raji cells at 10 uM under deem light after 96 hrs by MTT assay relative to control; format: functional; conditions: read-out: Survival
K562 [23] = test: Survival of human K562 cells at 10 uM under deem light after 96 hrs by MTT assay relative to control; format: functional; conditions: K562, 96 h, read-out: Survival
Raji [24] = test: Survival of human Raji cells at 0.1 uM under deem light after 96 hrs by MTT assay relative to control; format: functional; conditions: read-out: Survival
Daudi = test: Cytotoxicity against human Daudi cells under deem light after 96 hrs by MTT assay; format: functional, cell-based
SiHa [25] = test: Survival of human SIHA cells at 50 uM under deem light after 96 hrs by MTT assay relative to control; format: functional; conditions: read-out: Survival
[26] = Survival of human MDA-MB cells at 1 uM under deem light after 96 hrs by MTT assay relative to control; format: functional; conditions: read-out: Survival
[27] = Photohemolysis in human RBC assessed as concentration required to 50% hemolysis under light exposure for 5 mins; format: ADME, cell-based, Erythrocyte; conditions: human red blood cells, read-out: Activity
[28] = Survival of human H209 cells at 1 uM under deem light after 96 hrs by MTT assay relative to control; format: functional; conditions: NCI-H209, 96 h, read-out: Survival
[29] = Survival of human H209 cells at 10 uM under deem light after 96 hrs by MTT assay relative to control; format: functional; conditions: NCI-H209, 96 h, read-out: Survival
[30] = Survival of human 2780.9S cells at 0.1 uM under deem light after 96 hrs by MTT assay relative to control; format: functional; conditions: read-out: Survival
HeLa [31] = test: Survival of human HeLa cells at 10 uM under deem light after 96 hrs by MTT assay relative to control; format: functional; conditions: read-out: Survival
Raji [32] = test: Survival of human Raji cells at 100 uM under deem light after 96 hrs by MTT assay relative to control; format: functional; conditions: read-out: Survival
K562 [33] = test: Survival of human K562 cells at 100 uM under deem light after 96 hrs by MTT assay relative to control; format: functional; conditions: K562, 96 h, read-out: Survival
NCI-H69 [34] = test: Survival of human H69 cells at 0.1 uM under deem light after 96 hrs by MTT assay relative to control; format: functional; conditions: NCI-H69, 96 h, read-out: Survival
K562 [35] = test: Survival of human K562 cells at 1 uM under deem light after 96 hrs by MTT assay relative to control; format: functional; conditions: K562, 96 h, read-out: Survival
[36] = Survival of human 2780.9S cells at 50 uM under deem light after 96 hrs by MTT assay relative to control; format: functional; conditions: read-out: Survival
SiHa [37] = test: Survival of human SIHA cells at 10 uM under deem light after 96 hrs by MTT assay relative to control; format: functional; conditions: read-out: Survival
HeLa [38] = test: Survival of human HeLa cells at 0.1 uM under deem light after 96 hrs by MTT assay relative to control; format: functional; conditions: read-out: Survival
K562 [39] = test: Cytotoxicity against human K562 cells under deem light after 96 hrs by MTT assay; format: functional, cell-based; conditions: K562, 96 h
[40] = Photohemolysis in human RBC assessed as concentration required to 50% hemolysis under light exposure for 10 mins; format: ADME, cell-based, Erythrocyte; conditions: human red blood cells, read-out: Activity
[41] = Photohemolysis in human RBC in absence of light; format: ADME, cell-based; conditions: erythrocyte
[42] = Survival of human 2780.9S cells at 100 uM under deem light after 96 hrs by MTT assay relative to control; format: functional; conditions: read-out: Survival
[43] = Cytotoxicity against human MDA-MB cells under deem light after 96 hrs by MTT assay; format: functional, cell-based
K562 [44] = test: Survival of human K562 cells at 0.1 uM under deem light after 96 hrs by MTT assay relative to control; format: functional; conditions: K562, 96 h, read-out: Survival
[45] = Survival of human MDA-MB cells at 50 uM under deem light after 96 hrs by MTT assay relative to control; format: functional; conditions: read-out: Survival
[46] = Cytotoxicity against human 2780.9S cells under deem light after 96 hrs by MTT assay; format: functional, cell-based
HeLa [47] = test: Survival of human HeLa cells at 100 uM under deem light after 96 hrs by MTT assay relative to control; format: functional; conditions: read-out: Survival
SiHa [48] = test: Cytotoxicity against human SIHA cells under deem light after 96 hrs by MTT assay; format: functional, cell-based
NCI-H69 [49] = test: Survival of human H69 cells at 10 uM under deem light after 96 hrs by MTT assay relative to control; format: functional; conditions: NCI-H69, 96 h, read-out: Survival
NCI-H69 [50] = test: Survival of human H69 cells at 100 uM under deem light after 96 hrs by MTT assay relative to control; format: functional; conditions: NCI-H69, 96 h, read-out: Survival

`CC1=C(CCC(=O)O)c2cc3nc(cc4[nH]c(cc5[nH]c(cc1n2)c(C)c5C(C)O)c(C)c4C(C)O)C(C)=C3CCC(=O)O` (stereo unspecified) [HAEMAPORPHYRIN] showed a viability at 100 µM (SiHa [1]) of 44.5%, a viability at 50 µM [2] of 93.3% and a viability at 0.1 µM [3] of 91.4%. For the same molecule, the hemolysis at 10 min, 0.375 µM [4] was 100%, the viability at 100 µM [5] was 82.8% and the viability at 1 µM (HeLa [6]) was 103%. It also gave an IC50 (Raji [7]) of 57 µM, a viability at 10 µM [8] of 104% and a viability at 1 µM (SiHa [9]) of 92.2%. For the same molecule, the IC50 (HeLa [10]) was 71 µM, the IC50 (NCI-H69 [11]) was 70 µM and the viability at 0.1 µM [12] was 136%. For the same molecule, the viability at 10 µM [13] was 75.5%, the viability at 50 µM (K562 [14]) was 55.9% and the viability at 100 µM [15] was 84.6%. For the same molecule, the viability at 1 µM (Raji [16]) was 89.6%, the viability at 50 µM (Raji [17]) was 27.6% and the viability at 50 µM (NCI-H69 [18]) was 82.9%. It also gave a viability at 50 µM (HeLa [19]) of 109%, a viability at 1 µM (NCI-H69 [20]) of 105% and a viability at 1 µM [21] of 82.5%. For the same molecule, the viability at 10 µM (Raji [22]) was 71.4%, the viability at 10 µM (K562 [23]) was 82.5% and the viability at 0.1 µM (Raji [24]) was 92.1%. It also gave an IC50 (Daudi) of 15 µM, a viability at 50 µM (SiHa [25]) of 52.6% and a viability at 1 µM [26] of 115%. It also gave an HC50 at 5 min [27] of 170 nM, a viability at 1 µM [28] of 94% and a viability at 10 µM [29] of 99.5%. For the same molecule, the viability at 0.1 µM [30] was 102%, the viability at 10 µM (HeLa [31]) was 113% and the viability at 100 µM (Raji [32]) was 17%. The viability at 100 µM (K562 [33]) was 32.1%, the viability at 0.1 µM (NCI-H69 [34]) was 92.2% and the viability at 1 µM (K562 [35]) was 82.7%. It also gave a viability at 50 µM [36] of 81.4%, a viability at 10 µM (SiHa [37]) of 81.6% and a viability at 0.1 µM (HeLa [38]) of 85.8%. The IC50 (K562 [39]) was 44 µM, the HC50 at 10 min [40] was 460 nM and the Activity [41] was “Non-toxic”. The viability at 100 µM [42] was 43.8%, the IC50 [43] was > 100 µM and the viability at 0.1 µM (K562 [44]) was 68.7%. For the same molecule, the viability at 50 µM [45] was 107%, the IC50 [46] was > 100 µM and the viability at 100 µM (HeLa [47]) was 104%. The IC50 (SiHa [48]) was 56 µM, the viability at 10 µM (NCI-H69 [49]) was 104% and the viability at 100 µM (NCI-H69 [50]) was 62.6%.
